Results published in US20120321584A1, “PROCESSES FOR PREPARING AMINE SALTS OF KMUP-3 AND USE THEREOF” (KAOHSIUNG MEDICAL UNIVERSITY, priority 2011, published 2012).

Legend:
[1] = test system: electrically-stimulated left atria; assay: Electrically-stimulated beating left atrium, organ bath; type: cell-based, guinea-pig; details: for Effect of pretreatment on KMUP-3-induced contractility: sGC inhibitor ODQ, eNOS inhibitor L-NAME; for Effect of pretreatment on KMUP-3-induced positive inotropic activity: propranolol and Y27632 1 μM, C3 exoenzyme 50 μg/mL, ketanserin 1.0 μM, L-NAME 100 μM
Protocol: (§1) Organ bath experiments and tissue procurement. Guinea-pigs were killed by a blow on the head. Their hearts were quickly excised and trimmed of excess tissues. The atrium was carefully removed and placed at room temperature (20˜25° C.) in a Krebs solution of the following composition (mM): NaCl 113, KCl 4.8, CaCl2 2.2, KH2PO4 1.2, MgCl2 1.2, NaHCO3 25, dextrose 11.0; bubbled with a 95% O2+5% CO2 mixture, followed by separation of right and left atrium for subsequent experiments.
Quiescent left atria free of connective tissues were dissected and mounted in an organ bath under a resting tension of 0.5 g. Organs were bathed at 32.5° C. in aerated Krebs solution and electrically stimulated with 1 Hz at […] via two platinum electrodes placed at either side. The positive inotropic effect was measured by determining the cumulative concentration-response curves in the presence of KMUP-3 or KMUP-3 amine salt (0.1, 1.0, 10, 100 μM). To examine the possible involvement of NO and cAMP/cGMP in the action of KMUP-3 or KMUP-3 amine salt on electrically-stimulated beating atria, pre-incubated with a ROCK inhibitor Y27632 (1.0 μM), a β-adrenoceptor blocker propranolol (1.0 μM), eNOS inhibitors L-NAME (100 μM), 7-nitroindazole (100 μM) and 5-HT inhibitor ketanserin (1.0 μM) was performed for 15 min prior to the addition of KMUP-3 or KMUP-3 amine salt to measure the development of beating force and heart rate for 10 min.

[2] = test system: isolated spontaneously beating right atrium; assay: Spontaneously beating right atrium, organ bath; type: cell-based, guinea-pig; details: for Effect of pretreatment on the beating frequency decreased by KMUP-3: atropine 1 μM, 7-nitroindazole 100 μM
Protocol: as §1
Spontaneously beating right atrium was dissected from the heart and mounted in a 10 ml organ bath with one end fixed and the other end connected to a force displacement transducer (Grass, Model FT03). The frequency of contraction was measured on a separate channel by a tachometer (Coulbourn, Model S77-26) connected to a high-speed videograph (Coulbourn, AT L19-69). These experiments were carried out at 32.5° C. in Krebs solution. The atria strip was pre-stretched to a baseline tension of 0.5 g and equilibrated for 90 min in aerated (95% O2+5% CO2) Krebs solution before the experimental protocols were initiated. The atria were then allowed a 30-60 min washout period to re-stabilize. KMUP-3 or KMUP-3 amine salt (0.1, 1.0, 10, 100 μM) were then cumulatively added to the organ bath. […]

[3] = test system: electrically-stimulated left atria; assay: Electrically-stimulated beating left atrium, organ bath; type: cell-based, guinea-pig; details: 0.1~30 μM, electrical stimulation 1 Hz
[4] = Hemodynamic measurements in anesthetized rats (LVSP, dP/dt, MABP, HR); type: in vivo, Wistar rats; details: intravenous pretreatment at 1 mg/kg; KMUP-3 1 mg/kg, i.v.
Protocol: Hemodynamic measurements were carried out in male Wistar rats weighting 300˜350 g, anesthetized with pentobarbital sodium (40 mg kg^−1, i.p.). In brief, polyethylene tubing (PE50) was placed in the trachea to keep the airway patent, and rats continued to breathe spontaneously. Subsequently, rats were used to record hemodynamic and cardiovascular function. Vascular catheters (PE50) were placed in the femoral arteries to measure mean arterial blood pressure (MABP) and heart rate (HR). Changes of MABP and HR caused by KMUP-3 or KMUP-3 amine salt were recorded from the femoral artery with a pressure transducer (Gould, Model P50, U.S.A.), connected with a Pressure Processor Amplifier (Gould, Model 13-4615-52, U.S.A.). A femoral vein was used for intravenous administration of KMUP-3 or KMUP-3 amine salt. A specialized transducer tip catheter was placed in the right carotid artery and advanced into the left ventricle of the heart for measurement of left ventricular pressure (LVSP) or contractility; dP/dt at 50 mm Hg, an index of cardiac contractility, was derived from the left ventricular pressure trace; post-hoc vascular resistance was calculated as mean arterial blood pressure/peripheral cardiac output (MABP/PCO). Body temperature was monitored throughout the experiment and maintained between 37 and 37.5° C. by using a heating pad.
Each dose of active drugs was administered as a 20-min infusion in a series of escalating doses dissolved in a 5% dextrose water vehicle. […] KMUP-3 HCl or KMUP-3 amine salt were infused at 0.03, 0.05, and 0.075 μg/kg/20 min for the measurement of FABP, intraperitoneally injected at 0.03, 0.05 and 0.1 mg/kg for the measurement of MABP and HR and infused by intravenous injection for 2 min at 0.5, 1.0, 3.0 mg/kg dissolved in 5% dextrose water vehicle (2 ml) for the measurement of LV systolic pressure (LVSH), ABP, dP/dt, and HR. The primary hemodynamic variables were computed using commercial software and a signal processing workstation. Animals were randomly divided into one of six treatment or vehicle groups. After the completion of the surgical protocol, animals were allowed to stabilize for 1 h, and baseline data were collected at 5-min intervals for 30 min before the treatment.

ROCKII = ROCKII expression in electrically-stimulated left atria, Western blotting; type: cell-based, guinea-pig; details: Y27632 1-100 μM
Protocol: (§2) Protein extraction and Western blotting analysis. Briefly, after incubation with test agents in an organ bath, isolated beating atrium was frozen and pulverized to a fine powder at the temperature of liquid nitrogen. Atrium powders were then homogenized in protein extraction reagent (Pierce Biotechnology, Inc., Rockford, Ill.) by sonication. The samples were sonicated 10 sec three times and centrifuged at 13,000 rpm at 4° C. for 30 min. The protein concentrations of supernatants were determined by using bovine serum albumin as the standard. The cell extracts were then boiled in a ratio of 4:1 with sample buffer (Tris 100 mM, pH 6.8; glycerol 20%, Sodium dodecyl sulfate (SDS) 4% and bromophenol blue 0.2%). Electrophoresis was performed using 10% SDS-PAGE and transferred to nitrocellulose membranes (Millipore Corp., Billerica, Mass.). The membrane was blocked with Tris-buffered saline (TBS; 20 mM Tris and 137 mM NaCl, pH 7.6) containing 0.1% Tween 20 (TTBS) and 5% nonfat milk at room temperature for 1 h, washed with TTBS, and then incubated overnight at 4° C. in the appropriate primary antibody for PKARI, RhoA, ROCKII, p-CIP-17, CPI-17 and PKG1α1β. The membranes were washed in TTBS before being incubated with horseradish peroxidase-conjugated antibody against mouse, goat, or rabbit IgG for 1 hr. Membranes were then washed in TTBS and developed with the enhanced chemiluminescence for the detection of the specific antigen. The intensity of the bands was measured by densitometry. eNOS or phosphorylated eNOS were extracted from cell culture of neonatal myocytes, PA ring and aortic ring (2-3 mm) of rats and measured by Western blotting analysis.
(§3) PK, ROCKII and CIP-17 expression and pretreatment of beating left atrium. To examine whether KMUP-3 or KMUP-3 amine salt affects the protein expression in beating atrium, PKA, ROCKII, PKG and phosphorylated CIP-17 was determined by Western blotting, respectively. […]

PKA = PKA expression in electrically-stimulated left atria, Western blotting; type: cell-based, guinea-pig; details: Y27632 1-100 μM
Protocol: as §2, §3

PKCα = PKCα translocation of beating left atrium; type: cell-based, guinea-pig; details: Y27632 1-10 μM
Protocol: To determine the effect of KMUP-3 or KMUP-3 amine salt on PKCa translocation, isolated left beating atrium was incubated with KMUP-3 or KMUP-3 amine salt for 30 minutes (0.1-10 μM). In brief, frozen left atrium was pulverized to a fine powder at the temperature of liquid nitrogen for preparation of cytosolic and membrane fractions. Isolated left atrium tissues were then homogenized by a sonicator (XL-2020, Heat Systems Ultrasonic, Plainview, N.Y., USA) at 4 in 1 ml of homogenization buffer containing 20 mM Tris-HCl (pH 7.5), 1 mM dithiothreitol (DTT), 5 mM EGTA, 2 mM EDTA, 0.5 mM PMSF, 20 μM leupeptin and 20 μM aprotinin. The cytosol fractions were obtained by collecting the supernatants after centrifuging the cells at 100,000×g for 45 minutes at 4. The pellets were resonicated in the homogenizing buffer with 1% Triton X-100, centrifuged again at 100,000×g for 45 minutes at 4, and the supernatants collected as membrane fractions. The extracts for cytosol and membrane fractions were denatured by heating at for 10 minutes in sampling buffer, and an aliquot containing 20 μg of total protein was subjected to a 10% SDS-polyacrylamide gel electrophoresis. […] Protein was detected with horseradish peroxidase (HRP) conjugated secondary antibody (BD Transduction Laboratories). […] The immunoreactive bands were detected by chemiluminescence (ECL) reagents (PerkinElmer Life Sciences, Inc).

L-type Ca2+ channels = assay: Ca2+ entry currents in H9c2 cells, whole cell patch-clamp; type: cell-based, rat; details: KMUP-3 10 μM with KT5823 3 μM or Y27642 50 μM
Excerpt: To measure the ICa through L-type Ca^2+ channels, whole cell patch-clamp electrophysiology was used in rat heart-derived H9c2 cells as previously described. In brief, H9c2 cells were placed in a recording dish and perfused with a bath solution containing (in mM): 135 tetraethylammonium (TEA)-Cl, 1.8 CaCl2, 2 MgCl2, 10 glucose, and 10 HEPES (pH 7.4, Tris). […] Negative pressure was briefly applied to rupture the membrane and a gigaohm seal was obtained.
H9c2 cells were clamped at −80 mV with step depolarizations (300 ms) from −80 to 0 mV to evoke whole-cell ICa. Voltage clamped cells were equilibrated for 15 min prior to experimentation. Membrane currents were recorded on an Axopatch 700A amplifier (Axon Instruments, Union City, Calif.), filtered at 1 kHz using a low-pass Bessel filter, digitized at 5 kHz and stored on a computer for subsequent analysis with Clampfit 9.0. Following equilibration, ICa was monitored in the presence and absence of KMUP-3 or KMUP-3 amine salt (1, 10, 100 μM). To ascertain whether PKG or ROCK signaling was involved in the KMUP-3-induced decreases in ICa, H9c2 cells were incubated for 15 min with the combination of KMUP-3 or KMUP-3 amine salt (10 μM) and PKG antagonist KT5823 (3 μM) or ROCK inhibitor Y-27632 (50 μM). All electrical recordings were performed at room temperature.

PKG = PKG expression in beating left atrium, Western blotting; type: cell-based, guinea-pig; details: L-NAME pretreatment
Protocol: as §2, with “The membrane was blocked with Tris-buffered saline (TBS; 20 mM Tris and 137 mM NaCl, pH 7.6) containing 0.1% Tween 20 (TTBS) and 5% nonfat milk at room temperature for 1 h, washed with TTBS, and then incubated overnight at 4° C. in the appropriate primary antibody for PKARI, RhoA, ROCKII, p-CIP-17, CPI-17 and PKG1α1β. The membranes were washed in TTBS before being incubated with horseradish peroxidase-conjugated antibody against mouse, goat, or rabbit IgG for 1 hr. Membranes were then washed in TTBS and developed with the enhanced chemiluminescence for the detection of the specific antigen.” left out
as §3

eNOS = eNOS expression in neonatal myocytes, Western blotting; type: cell-based, rat; details: L-NAME 100 μM pretreatment
Protocol: (§4) eNOS/p-NOS and cAMP/cGMP in neonatal myocytes. To determine the role of the NO/cGMP-pathway in heart, neonatal rat myocyte protein was extracted followed by Western blotting to measure the expression of eNOS, phosphorylated eNOS (p-eNOS), cAMP, and cGMP (FIG. 14 A-14 B and FIG. 15 A-15 B). KMUP-3 increased eNOS and p-eNOS in neonatal rat cardiomyocytes and the effect was reduced by L-NAME (100 μM)-pretreatment (FIG. 14A and FIG. 14B). KMUP-3 increased both cAMP and cGMP.
(§5) Protein extraction and Western blotting analysis. Briefly, after incubation with test agents in an organ bath, isolated beating atrium was frozen and pulverized to a fine powder at the temperature of liquid nitrogen. Atrium powders were then homogenized in protein extraction reagent (Pierce Biotechnology, Inc., Rockford, Ill.) by sonication. The samples were sonicated 10 sec three times and centrifuged at 13,000 rpm at 4° C. for 30 min. The protein concentrations of supernatants were determined by using bovine serum albumin as the standard. […] The intensity of the bands was measured by densitometry. eNOS or phosphorylated eNOS were extracted from cell culture of neonatal myocytes, PA ring and aortic ring (2-3 mm) of rats and measured by Western blotting analysis.

[5] = test system: phosphorylated eNOS (p-eNOS); assay: Phosphorylated eNOS expression in neonatal myocytes, Western blotting; type: cell-based, rat; details: L-NAME 100 μM pretreatment
Protocol: as §4, §5

For `O=c1onc2cnc3ccccc3n12` [ODQ], the “Effect of pretreatment on KMUP-3-induced contractility” value [1] was “inhibited”.
With `Cc1[nH]c(=O)c(C#N)cc1-c1ccncc1` [milrinone] the “Chronotropic effect (beating frequency)” value ([2]; 0.1-30 μM) was “increased”, the “Inotropic effect (contraction force)” value ([2]; 0.1-30 μM) was “increased” and the Left atrium contractility [3] was “concentration-dependently increased”.
For `CC(C)NCC(O)COc1cccc2ccccc12` (stereo not drawn) [propranolol, reference compound], the “Effect of pretreatment on the effects (LVSP, dP/dt, MABP) induced by KMUP-3” value (shortened to “Effect of pretreatment on the effects”) [4] was “inhibited” and the “Effect of pretreatment on KMUP-3-induced positive inotropic activity” value [1] was “reduced”.
In the case of `CN1[C@@H]2CC[C@H]1C[C@@H](OC(=O)C(CO)c1ccccc1)C2` (stereo partly drawn) [atropine], the “Effect of pretreatment on the beating frequency decreased by KMUP-3” value [2] is reported as “up-regulated”.
In the case of “C3 exoenzyme: C3 exoenzyme, used at 50 μg/mL as pretreatment”, the “Effect of pretreatment on KMUP-3-induced positive inotropic activity” value [1] is reported as “reduced”.
For `C[C@@H](N)[C@H]1CC[C@H](C(=O)Nc2ccncc2)CC1` [Y27632, reference compound], the “Effect of pretreatment on the effects” value [4] was “inhibited”, the “Effect of pretreatment on KMUP-3-induced positive inotropic activity” value [1] was “reduced” and the “Effect on KMUP-3-induced expression of ROCK II” value (ROCKII) was “inhibited”. For the same molecule, the “Effect on KMUP-3-induced expression of PKA” value (PKA) was “inhibited”, the “Effect of pretreatment on KMUP-3-induced translocation of PKCα” value (PKCα) was “insignificantly prevented” and the “Effect of combination on currents reduced by KMUP-3” value (L-type Ca2+ channels) was “restored”.
In the case of `COC(=O)[C@@]1(OC)C[C@H]2O[C@]1(C)n1c3ccccc3c3c4c(c5c6ccccc6n2c5c31)C(=O)N(C)C4` [KT5823], the “Effect of combination on currents reduced by KMUP-3” value (L-type Ca2+ channels) is reported as “restored”.
For `O=[N+]([O-])c1cccc2cn[nH]c12` [7-nitroindazole], the “Effect of pretreatment on the beating frequency decreased by KMUP-3” value [2] was “up-regulated” and the “Effect of combination on left atria contractility increased by KMUP-3” value ([1]; KMUP-3 10 μM with 7-nitroindazole 100 μM) was “reduced”.
With `O=C(c1ccc(F)cc1)C1CCN(CCn2c(=O)[nH]c3ccccc3c2=O)CC1` [ketanserin, reference compound] the “Effect of pretreatment on the effects” value [4] was “inhibited” and the “Effect of pretreatment on KMUP-3-induced positive inotropic activity” value [1] was “reduced”.
In the case of `COC(=O)[C@@H](N)CCCNC(=N)N[N+](=O)[O-]` [L-NAME], the “Effect of pretreatment on KMUP-3-induced positive inotropic activity” value [1] is reported as “reduced”, the “Effect of pretreatment on KMUP-3-induced contractility” value [1] is reported as “inhibited” and the “Effect of pretreatment on expression of PKG” value (PKG) is reported as “reduced”. The “Effect of pretreatment on KMUP-3-increased eNOS” value (eNOS) was “reduced” and the “Effect of pretreatment on KMUP-3-increased p-eNOS” value [5] was “reduced”.
